# Reference: patent US20100317671A1, “XANTHINE-BASED CYCLIC GMP-ENHANCING RHO-KINASE INHIBITOR INHIBITS PHYSIOLOGICAL ACTIVITIES OF LUNG EPITHELIAL CELL LINE” (KAOHSIUNG MEDICAL UNIVERSITY, priority 2008, published 2010)
# Tests used:
# [1] = system: inflammatory cells in the lung lavage; experiment: Inflammatory cells in lung lavage, bleomycin-induced IPF mice; assay type: in vivo; parameters: WBC total (white blood cell total count) / NE (neutrophil) / LY (lymphocyte) / MO (monocyte) / EO (eosinophil) / BA (basophil): unit not given here; conditions: for Amount of WBC in lung lavage: lung inflammatory stage; for BA (basophil) / EO (eosinophil) / LY (lymphocyte) / MO (monocyte) / NE (neutrophil) / WBC total (white blood cell total count): lung lavage
# Description: The amounts of the total cell, the neutrophill, the lymphocyte, the monocyte, the eosinophill and the basophill are analyzed by an automatic animal blood cell analyzer for evaluating the extent of the inflammation. […] The mice are euthanatized by administering the Urathane in a dose of 37.5 mg/10 g. The larynx is opened, the trachea is picked out, cut and held by a forcepts and a 0.58 mm PE tube is slowly inserted the trachea for infusing 0.5 ml PBS. The PBS is incubated for 15 seconds and then collected after gently massaging the lung tissue. 1 c.c. lung lavage is obtained after the above steps are repeated twice. The lung lavage is collected and transferred into a centrifuged tube for centrifuging at 1,200 rpm at 4° C. for 6 mins. The supernatant is collected and stored at −80° C. for zymography, and the pellet is suspended in PBS for calculating the WBC count. The pellet of the alveolar lavage is suspended in PBS and transferred into an eppendorff. The amount and kind of the inflammatory cell such as WBC total, the lymphocyte, the monocyte, the neutrophil, the eosinophil and the basophil are analyzed by an automatic animal blood cell analyzer.
# eNOS = experiment: Short-term nebulization without OVA sensitization, lung tissue; assay type: in vivo, mice; conditions: 1.0~2.5 mM, 30 mins nebulization, no OVA
# Description: Short-term KMUP-1 (5 mM, 30 min) nebulization and pretreatment with L-NAME (12 mM, […]) are accomplished using a previously described method. Aerosols were generated by ultrasonic nebulizer from day 21 to 27. Mice were sacrificed on day 28. Three different experiments were performed on cohorts of 7-14 mice per experimental condition.
# Please refer to FIGS. 22(B) and 23(B), the changes of eNOS and MMP-9 expression by KMUP-1 (2.5 mM, 30 mins) are reversed by L-NAME-pretreatment (12 mM, 30 mins).
# [2] = system: total cells, lymphocytes and eosinophils in BALF; experiment: Cellular components in BALF, OVA-challenged mice; assay type: in vivo; conditions: 24 hrs after last OVA challenge; nebulization
# From the text: Inflammation and remodeling of the bronchioles is associated with infiltration of blood-born lymphocytes, eosinophils and neutrophils, migrating into bronchial lumen. During the course of allergic disease, structural changes occur in the airways, referred to as remodeling. However, treatment with KMUP-1 prevents the migration of blood born cells into bronchiole.
# HMGB1 = HMGB1 expression, bleomycin mice; assay type: in vivo; conditions: lung inflammatory stage
# Description: (§1) At day 28, it is observed that expression of eNOS is decreased, the expressions of TGF-β, Smad 3 and HMGB1 are increased and there is significant collagen accumulation in the tissue sections.
# (§2) (1) The mice lung is immersed in the tissue lysis buffer and homogenized by an ultrasound sonicator on ice.
# (§3) (2) The lysate is centrifuged at 13,000 g under 4° C. for 30 mins. The supernatant is collected and the protein concentration measurement adopts the“Bio-Rad DC protein assay”. After diluting the protein as specific concentrations, the sample buffer being one fourth of the sample volume is added thereinto for heating at 100° C. for 5 mins, and the sample is loaded into each wells of SDS-PAGE gel in turn. The running buffer is added into the electrophoresis tank for electrophoresis at 100 V, the voltage is adjusted as 200 V when the protein runs to the lower gel, and the electrophoresis is stopped when the SDS-PAGE dye enters the SDS-PAGE.
# (3) The PVDF membrane is rinsed ith transfer buffer for use, and the protein on the SDS-PAGE is transferred to the PVDF membrane. The SDS-PAGE layer covering on the PVDF membrane is placed in a protein transfer tank immersed with the transfer buffer with the current set at 100V. After 80 mins, the transfer is completed and then the PVDF membrane is taken out. […]
# MMP-2 = experiment: Western blotting of lung tissue, bleomycin mice; assay type: in vivo; conditions: increased by bleomycin; p<0.01
# Description: (§4) The lung tissue is analyzed by western blotting, and the MMP-2 and MMP-9 protein expressions are shown in both of the FIGS. 9 and 10. In the lung tissue, the MMP-2 expression is more significant than MMP-9. KMUP-1 and KMUP-5 may mitigate the expressions of MMP-2 and MMP-9 increased by administrating the bleomycin (p<0.01).
# as §2, §3
# (§5) (3) The PVDF membrane is rinsed ith transfer buffer for use, and the protein on the SDS-PAGE is transferred to the PVDF membrane. The SDS-PAGE layer covering on the PVDF membrane is placed in a protein transfer tank immersed with the transfer buffer with the current set at 100V. After 80 mins, the transfer is completed and then the PVDF membrane is taken out.
# (§6) (4) after cutting the band having an appropriate molecular weight on the PVDF membrane, an appropriate amount of the blocking buffer is added to for blocking under room temperature to remove the non-specific binding. Then, evenly covering the diluted primary antibody on the PVDF membrane to react under room temperature for 2 hrs, and the excessive antibodies are removed by T-TBS. Further, evenly covering the diluted secondary antibody to react under room temperature for 1 hr and finally washing the excessive antibodies with T-TBS. The enhanced chemiluminescence (ECL) agent is added for reacting for 1-90 secs. After exposing to a x-ray film, the reaction is completed.
# MMP-9 = experiment: Western blotting of lung tissue, bleomycin mice; assay type: in vivo; conditions: increased by bleomycin; p<0.01
# Description: as §4, §2, §3, §5, §6
# Smad 3 = experiment: Smad3 expression by western blotting, bleomycin mice; assay type: in vivo; conditions: lung fibrotic stage
# Description: as §1
# (§7) The TGF-β (FIG. 12), CTGF (FIG. 13) and Smad3/p-Smad3 (FIG. 14) protein expressions in the lung tissue are analyzed by western blotting.
# as §2, §3
# (§8) (3) The PVDF membrane is rinsed ith transfer buffer for use, and the protein on the SDS-PAGE is transferred to the PVDF membrane. The SDS-PAGE layer covering on the PVDF membrane is placed in a protein transfer tank immersed with the transfer buffer with the current set at 100V. […]
# TGF-β = TGF-β expression by western blotting, bleomycin mice; assay type: in vivo; conditions: lung fibrotic stage
# Description: as §1, §7, §2, §3, §8
# [3] = Body weight change, bleomycin-induced IPF mice; assay type: in vivo
# Description: The six-week old mice are used in this experiment and divided into ten groups as follows. […] The six-week old male C57B1/6 mice are purchased from the National Laboratory Animal Center. […] After being […] pentobarbital in the dose of 0.52 mg/10 g, the mice is kept upright and positioned an otoscope into the larynx for looking into the trachea clearly. The bleomycin is loaded by a loading tip for intratracheal administration.
# [4] = day 7, dose 2.5 mg/kg (Combination: 2.5 mg/kg each drug)
# [5] = day 28, dose 2.5 mg/kg (Combination: 2.5 mg/kg each drug)
# [6] = Day 7, dose 2.5 mg/kg (Combination: 2.5 mg/kg each drug)
# [7] = Day 14, dose 2.5 mg/kg (Combination: 2.5 mg/kg each drug)
# [8] = Day 28, dose 2.5 mg/kg (Combination: 2.5 mg/kg each drug)
# [9] = Day −3, dose 2.5 mg/kg (Combination: 2.5 mg/kg each drug)
structure (smiles),measurement,setting,value
"Cn1c(=O)c2c(ncn2CCN2CCN(c3ccccc3Cl)CC2)n(C)c1=O [KMUP-1, 7-[2-[4-(2-chlorobenzene)piperazinyl]ethyl]-1,3-dimethylxanthine]",Amount of WBC in lung lavage,[1],efficiently decrease
same,BA (basophil),"[1]; day 7, dose 1 mg/kg",0.2 ± 0.01
same,EO (eosinophil),"[1]; day 7, dose 1 mg/kg",0.44 ± 0.02
same,LY (lymphocyte),"[1]; day 7, dose 1 mg/kg",1.83 ± 0.11
same,MO (monocyte),"[1]; day 7, dose 1 mg/kg",0.12 ± 0.02
same,NE (neutrophil),"[1]; day 7, dose 1 mg/kg",0.92 ± 0.13
same,WBC total (white blood cell total count),"[1]; day 7, dose 1 mg/kg",3.51 ± 0.01
same,BA (basophil),[1]; [4],0.11 ± 0.02
same,EO (eosinophil),[1]; [4],0.17 ± 0.11
same,LY (lymphocyte),[1]; [4],1.81 ± 0.09
same,MO (monocyte),[1]; [4],0.07 ± 0.01
same,NE (neutrophil),[1]; [4],0.91 ± 0.36
same,WBC total (white blood cell total count),[1]; [4],3.2 ± 0.49
same,BA (basophil),"[1]; day 7, dose 5 mg/kg",0.1 ± 0.02
same,EO (eosinophil),"[1]; day 7, dose 5 mg/kg",0.16 ± 0.01
same,LY (lymphocyte),"[1]; day 7, dose 5 mg/kg",1.76 ± 0.01
same,MO (monocyte),"[1]; day 7, dose 5 mg/kg",0.07 ± 0.01
same,NE (neutrophil),"[1]; day 7, dose 5 mg/kg",0.33 ± 0.14
same,WBC total (white blood cell total count),"[1]; day 7, dose 5 mg/kg",2.43 ± 0.01
same,BA (basophil),"[1]; day 28, dose 1 mg/kg",0.21 ± 0.06
same,EO (eosinophil),"[1]; day 28, dose 1 mg/kg",0.42 ± 0.17
same,LY (lymphocyte),"[1]; day 28, dose 1 mg/kg",1.89 ± 0.76
same,MO (monocyte),"[1]; day 28, dose 1 mg/kg",0.2 ± 0.25
same,NE (neutrophil),"[1]; day 28, dose 1 mg/kg",0.61 ± 0.11
same,WBC total (white blood cell total count),"[1]; day 28, dose 1 mg/kg",3.41 ± 0.54
same,BA (basophil),[1]; [5],0.11 ± 0.7
same,EO (eosinophil),[1]; [5],0.17 ± 0.12
same,LY (lymphocyte),[1]; [5],1.24 ± 0.43
same,MO (monocyte),[1]; [5],0.07 ± 0.02
same,NE (neutrophil),[1]; [5],0.36 ± 0.16
same,WBC total (white blood cell total count),[1]; [5],1.95 ± 0.92
same,BA (basophil),"[1]; day 28, dose 5 mg/kg",0.1 ± 0.02
same,EO (eosinophil),"[1]; day 28, dose 5 mg/kg",0.16 ± 0.01
same,LY (lymphocyte),"[1]; day 28, dose 5 mg/kg",1.1 ± 0.01
same,MO (monocyte),"[1]; day 28, dose 5 mg/kg",0.07 ± 0.01
same,NE (neutrophil),"[1]; day 28, dose 5 mg/kg",0.33 ± 0.14
same,WBC total (white blood cell total count),"[1]; day 28, dose 5 mg/kg",1.8 ± 0.01
same,eNOS expression in lung tissues,eNOS,dose-dependently increased
same,Increase in eosinophils in BALF,[2],significantly reduces
same,Increase in lymphocytes in BALF,[2],significantly reduces
same,Increase in total cells in BALF,[2],significantly reduces
same,Expression of HMGB1,HMGB1,efficiently decrease
same,MMP-2 protein expression in lung tissue (western blotting),MMP-2,mitigate
same,MMP-9 protein expression in lung tissue (western blotting),MMP-9,mitigate
same,Expression of Smad 3,Smad 3,inhibit
same,Expression of TGF-β,TGF-β,inhibit
same,Body weight,"[3]; Day 7, dose 1 mg/kg",19.80 ± 3.13 g
same,Body weight,[3]; [6],17.84 ± 1.72 g
same,Body weight,"[3]; Day 7, dose 5 mg/kg",18.33 ± 1.3 g
same,Body weight,"[3]; Day 14, dose 1 mg/kg",20.48 ± 5.68 g
same,Body weight,[3]; [7],19.11 ± 3.4 g
same,Body weight,"[3]; Day 14, dose 5 mg/kg",19.83 ± 2.3 g
same,Body weight,"[3]; Day 28, dose 1 mg/kg",21.90 ± 5.27 g
same,Body weight,[3]; [8],20.43 ± 2.8 g
same,Body weight,"[3]; Day 28, dose 5 mg/kg",21.13 ± 2.5 g
same,Body weight,"[3]; Day −3, dose 1 mg/kg",24.12 ± 1.96 g
same,Body weight,[3]; [9],23.06 ± 1.36 g
same,Body weight,"[3]; Day −3, dose 5 mg/kg",23.13 ± 1.42 g
CCC(C)(C)C(=O)O[C@H]1C[C@@H](C)C=C2C=C[C@H](C)[C@H](CC[C@@H](O)C[C@@H](O)CC(=O)O)[C@H]21.Cn1c(=O)c2c(ncn2CCN2CCN(c3ccccc3Cl)CC2)n(C)c1=O [KMUP-5],Amount of WBC in lung lavage,[1],efficiently decrease
same,BA (basophil),[1]; [4],0.02 ± 0.01
same,EO (eosinophil),[1]; [4],0.06 ± 0.04
same,LY (lymphocyte),[1]; [4],0.45 ± 0.17
same,MO (monocyte),[1]; [4],0.03 ± 0.02
same,NE (neutrophil),[1]; [4],0.18 ± 0.08
same,WBC total (white blood cell total count),[1]; [4],0.74 ± 0.21
same,BA (basophil),[1]; [5],0.01 ± 0.16
same,EO (eosinophil),[1]; [5],0.05 ± 0.3
same,LY (lymphocyte),[1]; [5],1.32 ± 1.59
same,MO (monocyte),[1]; [5],0.06 ± 0.11
same,NE (neutrophil),[1]; [5],0.14 ± 0.39
same,WBC total (white blood cell total count),[1]; [5],1.58 ± 2.24
same,Expression of HMGB1,HMGB1,efficiently decrease
same,MMP-2 protein expression in lung tissue (western blotting),MMP-2,mitigate
same,MMP-9 protein expression in lung tissue (western blotting),MMP-9,mitigate
same,Expression of Smad 3,Smad 3,inhibit
same,Expression of TGF-β,TGF-β,inhibit
same,Body weight,[3]; [6],22.25 ± 2.36 g
same,Body weight,[3]; [7],23.15 ± 2.51 g
same,Body weight,[3]; [8],23.03 ± 2.74 g
same,Body weight,[3]; [9],23.87 ± 2.04 g
same,Marasmus (body weight loss),[3]; bleomycin mice,less significant
